Experimental data from patent publication US9878006B2, “Treatment of obesity and obesity related disorders by pharmalogical targeting of Kv1.3 potassium channels” (The Regents of the University of California, priority 2011, dated 2018).
Read-outs that look alike come from different tables or passages of the source.

How the values were obtained:
brown fat [1] = settings: rats; 5 mg/kg body wt; cited from earlier work
brown fat [2] = settings: man; 1 mg/kg; cited from earlier work
skeletal muscle = test: PET imaging, 18FDG uptake by skeletal muscle; format: in vivo, mice; settings: FIG. 7
Experimental: (§1) ^18F-FDG was purchased from PETNET. Mice were fasted overnight before CT or PET scan. For PET scan animals were injected with 0.1-0.2 mCi of ^18F-FDG in sterile saline. Approximately, 0.02 to 0.05 ml was administered intravenously (tail vein) under 2% Isoflurane and animal was allowed to remain awake for 60 mins in their cages to allow distribution and uptake of ^18F-FDG. During the scan 2% isoflurane was used and the mouse was laid in the supine position on the scanner. All PET acquisitions were performed with an Inveon (Siemens Medical Solutions) preclinical PET scanner. PET data was acquired for 30 min. When used with PET scanner CT data was obtained immediately after PET imaging without changing the position of the animal. PET images were corrected for attenuation, scatter, randoms, and dead time. Images were reconstructed as 128×128 matrices using a fast MAP algorithm with a smoothing factor of 0.1. CT HU of BAT and WAT was obtained by calibrating the CT data using linear interpolation of water CT Density (CT HU=0) and air CT density (CT HU=−1000). After the scan procedure, animals were allowed to recover from anesthesia, placed in their cages and monitored for normal recovery.
(§2) All scanning data was acquired in full list mode and sorted into a single frame, 3 dimensional sinogram, which was rebinned using a Fourier rebinning algorithm. […]

brown adipose tissue = test: PET scan, 18FDG uptake by brown adipose tissue; format: in vivo, mice
Experimental: as §1, §2

[3] = system: brown adipose tissue cells; settings: potassium channel blockade; cited from earlier work
white adipose tissue = test: CT scan of white adipose tissue in the diet-induced obesity model; format: in vivo, C57BL/6 mice; settings: 500 μg/kg; after 45 days on high fat/high fructose diet; vs vehicle; p=0.000708; FIG. 3A/3B
Experimental: Mice were fasted overnight before CT scans. All CT acquisitions were performed with an Inveon (Siemens Medical Solutions) preclinical CT scanner. During the scan 2% isoflurane was used and the mouse was laid in the supine position on the scanner. Images were reconstructed as 128×128 matrices using a fast MAP algorithm with a smoothing factor of 0.1. CT HU of WAT was obtained by calibrating the CT data using linear interpolation of water CT Density (CT HU=0) and air CT density (CT HU=−1000). After the scan procedure, animals were allowed to recover from anesthesia, placed in their cages and monitored for normal recovery. All scanning data was acquired in full list mode and sorted into a single frame, 3 dimensional sinogram, which was rebinned using a Fourier rebinning algorithm. The images were reconstructed using 2 dimensional filter back projection using a Hanning Filter with a Nyquist cut off at 0.5, and corrected for attenuation using the Co-57 attenuation scan data. All CT Data analysis was done using PMOD 3.0 software.

[4] = diet-induced obesity model in mice (high fat/high fructose diet): weight gain and blood glucose; format: in vivo, C57BL/6 mice; settings: 20, 100 or 500 μg/kg s.c. on alternate days
Experimental: The accompanying figures show the obesity-deterring efficacy of ShK-186 in the diet-induced obesity model in C57BL/J mice (diet composed of 21% fat+60% fructose-water). 8 week old C57BL/6 mice were purchased from Harlan Co. (Indianapolis, Ind.). They were fed a specialized high fat diet (#TD88137; 21% fat) purchased from Harlan Co. (Indianapolis, Ind.), and they received a 60% fructose solution to drink. The mice were administered vehicle (P6N) or ShK-186 (20, 100 or 500 μg/kg) by subcutaneous injections on alternate days. Animals were weighed on alternate days. Blood glucose levels were monitored every 6 days by tail-vein sampling using an Accu-Chek compact glucometer from Roche. The animal experimental protocol was approved by the Institutional Animal Care and Use Committee at University of California, Irvine.
All mice received the high fat/high fructose diet throughout the trial. They received vehicle (P6N) or ShK-186 (20, 100 or 500 μg/kg) on alternate days by subcutaneous injection. The weight is normalized to the average weight at the start of the study. All the mice in this study were males. Using repeated measures ANOVA, the p value <0.0001 for all the ShK-186 doses.

[5] = CLAMS metabolic cages: feeding, drinking, RER, energy expenditure; format: in vivo, mice
Excerpt: FIGS. 4A through 4D show feeding and drinking patterns of mice analyzed in negative-flow CLAMS (Comprehensive Lab Animal Monitoring system) metabolic cages. All the animals were habituated with the high fat/high fructose diet for at least 7 days prior to the metabolic cage studies. All animals were placed individually in each metabolic cage and habituated for two days under normal 12 hr. light-dark cycle.
Mice were acclimated for 2 days in the metabolic cages before the measurements were made.
FIGS. 5A through 5D show Respiratory Exchange Ratio (RER) and energy expenditure in vehicle controls (n-2) and ShK-186-treated mice (n=2). RER of 0.70 is when a subject is metabolizing pure fat, whereas RER of 1.0 is when a subject is metabolizing pure carbohydrate.

[6] = n=2, vs vehicle controls, FIG. 5A-5D

## CC(C)NCC(O)COc1cccc2ccccc12 (centres unmarked) [propranolol, reference compound]
Brown fat [1]
  18-fluoro-deoxyglucose uptake into brown fat: eliminates ^18-fluoro-deoxyglucose uptake into brown fat
Brown fat [2]
  18-fluoro-deoxyglucose uptake into brown fat: has the same effect
Skeletal muscle; propranolol 5 mg/kg
  inhibition of ShK-186-increased 18FDG uptake by skeletal muscle: did not inhibit this uptake
Brown adipose tissue; propranolol 5 m/kg, FIG. 6B
  inhibition of 18FDG uptake by brown adipose tissue: inhibited

## CC[N+](CC)(CC)CC [tetraethylammonium]
[3]
  metabolic response of brown adipose tissue cells to adrenergic stimulation: does not alter the metabolic response of brown adipose tissue cells to adrenergic stimulation

## p-phospho-Tyr-AEEAc-Arg-Ser-Cys-Ile-Asp-Thr-Ile-Pro-Lys-Ser-Arg-Cys-Thr-Ala-Phe-Gln-Cys-Lys-His-Ser-Met-Lys-Tyr-Arg-Leu-Ser-Phe-Cys-Arg-Lys-Thr-Cys-Gly-Thr-Cys [ShK-186]
White adipose tissue
  volume of white adipose tissue: significantly reduced the volume of white adipose tissue
[4]; measured every 6 days, FIG. 1B
  blood glucose levels: without changing blood glucose levels
[4]; vs vehicle, dose-dependent, p<0.0001 for all doses, FIG. 1A
  weight gain: significantly reduced weight gain
[5]; given at onset of the measuring phase, controls feed and drink in dark cycle only, p<0.05 after first 24 hrs, FIG. 4A-4D
  feeding and drinking pattern: feed and drink during both dark and light cycles
[5]; n=2, especially during the light cycle, FIG. 5A-5D
  Respiratory Exchange Ratio (RER), substrate metabolized: metabolize more carbohydrate than fat
[5]; [6]
  energy expenditure during the day: greater energy expenditure during the day
  energy expenditure during the night: roughly equivalent energy expenditure during the night
Skeletal muscle; ShK-186 at 20, 100 and 500 μg/kg
  18FDG uptake by skeletal muscle: increased ^18FDG uptake by skeletal muscle
Brown adipose tissue; ShK-186 at 100 and 500 μg/kg, FIG. 6A
  18FDG uptake by brown adipose tissue: induces ^18FDG-uptake by brown adipose tissue
